Converted amounts (≈) assume the structure as drawn.
Experiments:
[1] = test system: Mycobacterium tuberculosis; assay: Antitubercular activity against Mycobacterium tuberculosis H37Rv at 6 ug/mL; assay type: functional
Clostridium tetani = assay: Antibacterial activity against Clostridium tetani MTCC 449 by broth microdilution assay method; assay type: functional
Plasmodium falciparum = assay: Antimalarial activity against Plasmodium falciparum; assay type: functional
Salmonella typhi = assay: Antibacterial activity against Salmonella typhi MTCC 98 by broth microdilution assay method; assay type: functional, Salmonella enterica subsp. enterica serovar Typhi; conditions: Salmonella enterica
Bacillus subtilis = assay: Antibacterial activity against Bacillus subtilis MTCC 441 by broth microdilution assay method; assay type: functional
Vibrio cholerae = assay: Antibacterial activity against Vibrio cholerae MTCC 3906 by broth microdilution assay method; assay type: functional
Escherichia coli = assay: Antibacterial activity against Escherichia coli MTCC 443 by broth microdilution assay method; assay type: functional
Streptococcus pneumoniae = assay: Antibacterial activity against Streptococcus pneumoniae MTCC 1936 by broth microdilution assay method; assay type: functional

SMILES | inhibition at 6 µg/mL [1] [%] | MIC (Clostridium tetani) [µg/mL] | IC50 (Plasmodium falciparum) [µg/mL] | MIC (Salmonella typhi) [µg/mL] | MIC (Bacillus subtilis) [µg/mL] | MIC (Vibrio cholerae) [µg/mL] | MIC (Escherichia coli) [µg/mL] | MIC (Streptococcus pneumoniae) [µg/mL]
O=C1CCSC(c2ccc(Cl)cc2)N1CCNc1ccnc2cc(Cl)ccc12 (stereo not given) | 73 | 62.5 (≈ 145 µM) | 0.098 (≈ 0.227 µM) | 250 (≈ 578 µM) | 62.5 (≈ 145 µM) | 125 (≈ 289 µM) | 125 (≈ 289 µM) | 125 (≈ 289 µM)
O=C1CCSC(c2ccccc2)N1CCCCNc1ccnc2cc(Cl)ccc12 (stereo not given) | 32 | 500 (≈ 1170 µM) | 3.12 (≈ 7.32 µM) | 500 (≈ 1170 µM) | 500 (≈ 1170 µM) | 500 (≈ 1170 µM) | 500 (≈ 1170 µM) | 500 (≈ 1170 µM)
O=C(NN1C(=O)CCSC1c1ccc(Br)cc1)c1cnc2c(C(F)(F)F)cccc2c1O (stereo not given) | 98 | 31.2 (≈ 59.4 µM) | 0.018 (≈ 0.0342 µM) | 31.2 (≈ 59.4 µM) | 62.5 (≈ 119 µM) | 62.5 (≈ 119 µM) | 125 (≈ 237 µM) | 125 (≈ 237 µM)
O=C1CCSC(c2ccccc2)N1CCNc1ccnc2cc(Cl)ccc12 (stereo not given) | 50 | 250 (≈ 628 µM) | 2.7 (≈ 6.79 µM) | 500 (≈ 1260 µM) | 250 (≈ 628 µM) | 250 (≈ 628 µM) | 500 (≈ 1260 µM) | 500 (≈ 1260 µM)
O=C1CCSC(c2ccc(Br)cc2)N1CCCNc1ccnc2cc(Cl)ccc12 (stereo not given) | 87 | 100 (≈ 204 µM) | 0.056 (≈ 0.114 µM) | 62.5 (≈ 127 µM) | 62.5 (≈ 127 µM) | 100 (≈ 204 µM) | 125 (≈ 255 µM) | 62.5 (≈ 127 µM)
O=C(NN1C(=O)CCSC1c1ccc(O)cc1)c1cnc2c(C(F)(F)F)cccc2c1O (stereo not given) | 79 | 250 (≈ 539 µM) | 1.58 (≈ 3.41 µM) | 125 (≈ 270 µM) | 125 (≈ 270 µM) | 125 (≈ 270 µM) | 250 (≈ 539 µM) | 250 (≈ 539 µM)
CO[C@H]1/C=C/O[C@@]2(C)Oc3c(C)c(O)c4c(O)c(c(/C=N/N5CCN(C)CC5)c(O)c4c3C2=O)NC(=O)/C(C)=C\C=C\[C@H](C)[C@H](O)[C@@H](C)[C@@H](O)[C@@H](C)[C@H](OC(C)=O)[C@@H]1C [RIFAMPIN] | 98 | – | – | – | – | – | – | –
COc1ccc(C2SCCC(=O)N2CCCNc2ccnc3cc(Cl)ccc23)cc1 (stereo not given) | 57 | 250 (≈ 566 µM) | 0.52 (≈ 1.18 µM) | 500 (≈ 1130 µM) | 125 (≈ 283 µM) | 250 (≈ 566 µM) | 250 (≈ 566 µM) | 125 (≈ 283 µM)
COc1ccc(C2SCCC(=O)N2CCCCNc2ccnc3cc(Cl)ccc23)cc1 (stereo not given) | 48 | 250 (≈ 548 µM) | 0.81 (≈ 1.78 µM) | 250 (≈ 548 µM) | 250 (≈ 548 µM) | 125 (≈ 274 µM) | 500 (≈ 1100 µM) | 250 (≈ 548 µM)
COc1cccc(C2SCCC(=O)N2CCCNc2ccnc3cc(Cl)ccc23)c1 (stereo not given) | 51 | 500 (≈ 1130 µM) | 1.87 (≈ 4.23 µM) | 250 (≈ 566 µM) | 250 (≈ 566 µM) | 500 (≈ 1130 µM) | 250 (≈ 566 µM) | 250 (≈ 566 µM)
O=C1CCSC(c2cccc(F)c2)N1CCCNc1ccnc2cc(Cl)ccc12 (stereo not given) | 52 | 250 (≈ 581 µM) | 1.12 (≈ 2.6 µM) | 125 (≈ 291 µM) | 125 (≈ 291 µM) | 250 (≈ 581 µM) | 250 (≈ 581 µM) | 125 (≈ 291 µM)
O=C1CCSC(c2ccc(F)cc2)N1CCCCNc1ccnc2cc(Cl)ccc12 (stereo not given) | 65 | 125 (≈ 282 µM) | 0.092 (≈ 0.207 µM) | 62.5 (≈ 141 µM) | 100 (≈ 225 µM) | 62.5 (≈ 141 µM) | 125 (≈ 282 µM) | 100 (≈ 225 µM)
O=C1CCSC(c2cccc(Cl)c2)N1CCNc1ccnc2cc(Cl)ccc12 (stereo not given) | 60 | 250 (≈ 578 µM) | 1.57 (≈ 3.63 µM) | 250 (≈ 578 µM) | 250 (≈ 578 µM) | 250 (≈ 578 µM) | 125 (≈ 289 µM) | 125 (≈ 289 µM)
CC1(C)S[C@@H]2[C@H](NC(=O)[C@H](N)c3ccccc3)C(=O)N2[C@H]1C(=O)O [AMPICILLIN] | – | 250 (≈ 715 µM) | – | 100 (≈ 286 µM) | 250 (≈ 715 µM) | 100 (≈ 286 µM) | 100 (≈ 286 µM) | 100 (≈ 286 µM)
COc1cccc(C2SCCC(=O)N2NC(=O)c2cnc3c(C(F)(F)F)cccc3c2O)c1 (stereo not given) | 65 | 500 (≈ 1050 µM) | 1.7 (≈ 3.56 µM) | 250 (≈ 524 µM) | 250 (≈ 524 µM) | 250 (≈ 524 µM) | 250 (≈ 524 µM) | 500 (≈ 1050 µM)
Cc1ccc(C2SCCC(=O)N2CCCNc2ccnc3cc(Cl)ccc23)cc1 (stereo not given) | 41 | 500 (≈ 1170 µM) | 2.2 (≈ 5.16 µM) | 500 (≈ 1170 µM) | 125 (≈ 293 µM) | 500 (≈ 1170 µM) | 250 (≈ 587 µM) | 250 (≈ 587 µM)
O=C1CCSC(c2cccc(F)c2)N1CCNc1ccnc2cc(Cl)ccc12 (stereo not given) | 66 | 250 (≈ 601 µM) | 1.05 (≈ 2.52 µM) | 250 (≈ 601 µM) | 250 (≈ 601 µM) | 250 (≈ 601 µM) | 62.5 (≈ 150 µM) | 125 (≈ 301 µM)
O=C1CCSC(c2cccc(Cl)c2)N1CCCCNc1ccnc2cc(Cl)ccc12 (stereo not given) | 49 | 250 (≈ 543 µM) | 1.93 (≈ 4.19 µM) | 125 (≈ 271 µM) | 250 (≈ 543 µM) | 125 (≈ 271 µM) | 250 (≈ 543 µM) | 250 (≈ 543 µM)

Reference: ChEMBL document CHEMBL4002605, “Synthesis, identification and in vitro biological evaluation of some novel quinoline incorporated 1,3-thiazinan-4-one derivatives” (Bioorg Med Chem Lett, 2017)
